Reference: patent publication US20090275099A1 (priority 2004, published 2009)
Read-outs that look alike come from different tables or passages of the source.

Experiments:
[1] = target: T1, mitochondrial F1F0-ATPase (Bos taurus, UniProt P13621+P32876); test: biochemical; parameters: species or system bovine; conditions: for IC50: read-out: KJ IC50 (hydr); for EC50: bovine SMPs
[2] = target: T1, mitochondrial F1F0-ATPase; test: biochemical; parameters: species or system bovine; conditions: for IC50: read-out: KJ IC50 (syn); for EC50: bovine SMPs
[3] = test system: F1F0-ATPase, OSCP subunit; test: F1F0-ATPase activity in SMPs reconstituted in the presence or absence of the OSCP; assay type: biochemical, bovine; conditions: without OSCP, at IC50
Protocol: (§1) An additional OSCP binding assay was conducted. […] Benzodiazepine derivative compounds that bind the OSCP include, but are not limited to: […]

[4] = target: mitochondrial F1F0-ATPase (Homo sapiens, UniProt P48047); conditions: read-out: BMS IC50 (hydr); cited from earlier work
[5] = target: T2, F1F0-ATPase, OSCP subunit (UniProt P48047); test: F1F0-ATPase activity in SMPs reconstituted in the presence or absence of the OSCP; assay type: biochemical, bovine; parameters: rows headed: KJ IC50 reconst; not tied in print to the reconstitution assay; conditions: read-out: KJ IC50 reconst
T2 sequence (P48047 1-213): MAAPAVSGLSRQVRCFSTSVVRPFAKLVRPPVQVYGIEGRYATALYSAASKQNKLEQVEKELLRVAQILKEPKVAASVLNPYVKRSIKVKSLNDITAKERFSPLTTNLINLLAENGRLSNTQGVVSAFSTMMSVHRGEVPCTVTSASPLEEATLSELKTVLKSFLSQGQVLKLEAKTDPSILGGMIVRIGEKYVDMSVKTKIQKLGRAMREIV
Protocol: as §1

Ramos B cells = test: cell death of Ramos B cells, propidium iodide exclusion by flow cytometry, 24 h; assay type: cell-based, human; conditions: for EC50: 24 h
Ramos cells = test: early O2− (ROS) response, 1 h; assay type: cell-based, human; conditions: for EC50: 1 h, read-out: ROS EC50 (μM), Ramos cells
Protocol: (§2) To detect O2^−, cells are incubated with DHE (10 μM) for 30 min at 37° C. and are analyzed by flow cytometry to measure ethidium fluorescence. Flow analysis of mitochondrial transmembrane potential (ψm) is conducted by labeling cells with DiOC6(3) (20 nM) for 15 min at 37 degrees C. A positive control for disruption of ψm is established using carbonyl cyanide m-chlorophenylhydrazone (CCCP, 50 μM). Caspase activation assays are performed with FAM-VAD-fluoromethylketone. Processing of the substrate is evaluated by flow cytometry.
(§3) Since an early mitochondrial superoxide (O2^−) mediates apoptosis induced by Bz-423, the O2^− response of cells 1 h following incubation with drug was examined, as well as cell death at 24 h, as previously described (see, e.g., Blatt, N. B., et al., 2002 J Clin Invest 110, 1123-1132; incorporated herein by reference in its entirety).

Jurkat cells [6] = test: early O2− (ROS) response, 1 h; assay type: cell-based; conditions: for EC50: 1 h, read-out: ROS EC50 (μM), Jurkat cells; for % ROS+: Jurkat cells, 75 μM PK11195, with or without antioxidant pre-incubation
Protocol: as §2, §3

Jurkat cells [7] = test: cell death at 24 h; assay type: cell-based; conditions: for EC50: 24 h, read-out: Cell death EC50 (μM), Jurkat cells; for % Cell death: Jurkat cells, 75 μM PK11195, with or without antioxidant pre-incubation
Protocol: as §3

[8] = test system: isolated rat liver mitochondria; test: ROS production in isolated mitochondria (DCF oxidation); conditions: aerobic conditions supporting state 3 respiration, slope versus control
Protocol: Male Long Evans rats are starved overnight and sacrificed by decapitation. Liver samples are homogenized in ice cold buffer A (250 mM sucrose, 10 mM Tris, 0.1 mM EGTA, pH 7.4), and nuclei and cellular debris are pelleted (10 min, 830 g, 4° C.). Mitochondria are collected by centrifugation (10 min, 15,000 g, 4° C.), and the supernatant is collected as the S15 fraction. The mitochondrial pellet is washed three times with buffer B (250 mM sucrose, 10 mM Tris, pH 7.4), and re-suspended in buffer B at 20-30 mg/mL. Mitochondria are diluted (0.5 mg/mL) in buffer C (200 mM sucrose, 10 mM Tris, pH 7.4, 1 mM KH2PO4, 10 μM EGTA, 2.5 μM rotenone, 5 mM succinate) containing 2′,7′-dichlorodihydrofluorescin diacetate (DCFH-DA, 1 μM). For state 3 measurements, ADP (2 mM) is included in the buffer, and prior to the addition of Bz-423, mitochondria are allowed to charge for 2 min. To induce state 4, oligomycin (10 μM) is added to buffer C. […] To detect effects on O2^− and delta ψm, mitochondria are incubated for 15 min at 37° C. in buffer C with vehicle, Bz-423, or CCCP containing DHE (5 μM) or DIOC6(3) (20 nM), and aliquots are removed for analysis by fluorescence microscopy.
O2^− production by Bz-423 may result from binding to a protein within mitochondria or a target in another compartment that signals mitochondria to generate ROS. […]

[9] = ATPase activity EC50 (μM), Hydrolysis
[10] = ATPase activity EC50 (μM), Synthesis

O=S(=O)(c1ccc(Cl)c(Cl)c1)N1Cc2ccccc2N(Cc2c[nH]cn2)C(CCc2ccccc2)C1 (centres unmarked) [4-(3,4-dichlorophenylsulfonyl)-1-(1H-imidazol-4-ylmethyl)-2-phenethyl-2,3,4,5-tetrahydro-1H-benzo[e][1,4]diazepine]
IC50 [1]: 60 nM | IC50 [2]: 5000 nM | % activity without OSCP at IC50 [3]: 76% | IC50 [4]: 22 nM | IC50 [5]: 50 nM

CN1C(=O)CN=C(c2ccc(Cl)cc2)c2cc(Cl)ccc21 [Compound 4-Cl-Dz, 4-chlorodiazepam]
inhibition of mitochondrial ATPase activity ([1]; 80 μM): do not significantly inhibit mitochondrial ATPase activity | EC50 ([1]; read-out: ATPase activity EC50 (μM), Hydrolysis): > 300 µM | EC50 ([2]; read-out: ATPase activity EC50 (μM), Synthesis): 210 µM | EC50 (Ramos B cells; read-out: Cell death EC50 (μM), Ramos cells): 130 µM | EC50 (Ramos cells): 180 µM | EC50 (Jurkat cells [6]): 230 µM | EC50 (Jurkat cells [7]): > 300 µM

CN1C(=O)C(Cc2ccc3ccccc3c2)CN(c2ccc(O)cc2)c2cc(Cl)ccc21 (centres unmarked) [GD-423]
cellular death of Ramos cells (Ramos B cells; 24 hours, 2% FBS, FIG. 8): causes cell death | response of Ramos cells at 1 hour (Ramos cells; 1 hour, 2% FBS, DHE, FIG. 9): causes cell death

S=C(Nc1ccc(Cl)cc1)OC(Cn1ccnc1)c1ccc(Cl)cc1Cl (centres unmarked) [(4-chlorophenyl)-thiocarbamic acid O-[1-(2,4-dichlorophenyl)-2-imidazol-1-yl-ethyl] ester]
IC50 [1]: 750 nM | IC50 [2]: 12500 nM | % activity without OSCP at IC50 [3]: 70% | IC50 [4]: 430 nM | IC50 [5]: 300 nM

N#CN/C(=N\C(Cn1ccnc1)c1cc(C(F)(F)F)ccc1C(F)(F)F)Nc1ccc(Cl)cc1Cl (centres unmarked) [(1-(2,5-bis(trifluoromethyl)phenyl)-2-(1H-imidazol-1-yl)ethyl)-3-(2,4-dichlorophenyl)-2-cyanoguanidine]
IC50 [1]: 100 nM | IC50 [2]: 3750 nM | IC50 [4]: 710 nM | IC50 [5]: 250 nM

N#CN/C(=N/c1ccc(Cl)cc1Cl)NC(Cn1ccnc1)c1ccc(Cl)cc1Cl (centres unmarked) [(1-(2,4-dichlorophenyl)-2-(1H-imidazol-1-yl)ethyl)-3-(2,4-dichlorophenyl)-2-cyanoguanidine]
IC50 [1]: > 3000 nM | IC50 [2]: 6000 nM | IC50 [4]: 600 nM | IC50 [5]: 4000 nM

vitamin E
% ROS+ (Jurkat cells [6]): 33.9 ± 2.6% | % Cell death (Jurkat cells [7]): 55.9 ± 0.5%

O=S(=O)(c1ccc(O)cc1)N1Cc2ccccc2N(Cc2cnc[nH]2)C(CCc2ccccc2)C1 (centres unmarked) [4-(4-hydroxphenylsulfonyl)-1-(1H-imidazol-4-ylmethyl)-2-phenethyl-2,3,4,5-tetrahydro-1H-benzo[e][1,4]diazepine]
IC50 [1]: 750 nM | IC50 [2]: 20000 nM | % activity without OSCP at IC50 [3]: 77% | IC50 [4]: 667 nM | IC50 [5]: 500 nM

O=S(=O)(c1ccc(C(F)(F)F)cc1)N1Cc2ccccc2N(Cc2c[nH]cn2)C(CCc2ccccc2)C1 (centres unmarked) [4-(4-trifluoromethylphenylsulfonyl)-1-(1H-imidazol-4-ylmethyl)-2-phenethyl-2,3,4,5-tetrahydro-1H-benzo[e][1,4]diazepine]
IC50 [1]: 50 nM | IC50 [2]: 6000 nM | % activity without OSCP at IC50 [3]: 80% | IC50 [4]: 100 nM | IC50 [5]: 25 nM

N#Cc1cccc(C(=O)/N=C(\Nc2ccc(Cl)cc2)NC(Cn2ccnc2)c2ccc(Cl)cc2Cl)c1 (racemic) [(+/−)-(1-(2,4-dichlorophenyl)-2-(1H-imidazol-1-yl)ethyl)-3-(4-chlorophenyl)-2-(3-cyanobenzoyl)guanidine]
IC50 [1]: 100 nM | IC50 [2]: 1500 nM | IC50 [4]: 33 nM | IC50 [5]: 200 nM

O=C(O)c1ccc(-c2c3nc(c(-c4ccc(C(=O)O)cc4)c4ccc([nH]4)c(-c4ccc(C(=O)O)cc4)c4nc(c(-c5ccc(C(=O)O)cc5)c5ccc2[nH]5)C=C4)C=C3)cc1.[Mn+3] [MnTBAP, Manganese(III) meso-tetrakis(4-benzoic acid)porphyrin]
% ROS+ (Jurkat cells [6]): 39.7 ± 2.8% | % Cell death (Jurkat cells [7]): 68.9 ± 1.0%

COc1ccc(S(=O)(=O)N2Cc3ccccc3N(Cc3c[nH]cn3)C(CCc3ccccc3)C2)cc1 (centres unmarked) [4-(4-methoxyphenylsulfonyl)-1-(1H-imidazol-4-ylmethyl)-2-phenethyl-2,3,4,5-tetrahydrol-1H-benzo[e][1,4]diazepine]
IC50 [1]: 75 nM | IC50 [2]: 7500 nM | % activity without OSCP at IC50 [3]: 81% | IC50 [4]: 77 nM | IC50 [5]: 50 nM

O=C1CN=C(c2ccccc2Cl)c2cc([N+](=O)[O-])ccc2N1 [Cz, clonazepam]
EC50 [1, 9]: 240 µM | EC50 [2, 10]: 120 µM | EC50 (Ramos B cells; Homo sapiens, Ramos, read-out: Cell death EC50 (μM), Ramos cells): > 300 µM | EC50 (Ramos cells; Homo sapiens, Ramos): > 300 µM | EC50 (Jurkat cells [6]; Homo sapiens, Jurkat): > 300 µM | EC50 (Jurkat cells [7]; Homo sapiens, Jurkat): > 300 µM

CN1C(=O)CN=C(c2ccccc2)c2cc(Cl)ccc21 [Dz, diazepam, reference compound]
EC50 [1, 9]: > 300 µM | EC50 [2, 10]: 210 µM | EC50 (Ramos B cells; Homo sapiens, Ramos, read-out: EC50 (μM), cell death): > 80 µM

O=S(=O)(N1Cc2ccccc2N(Cc2c[nH]cn2)C(CCc2ccccc2)C1)C(F)(F)F (centres unmarked) [4-trifluoromethylsulfonyl-1-(1H-imidazol-4-ylmethyl)-2-phenethyl-2,3,4,5-tetrahydro-1H-benzo[e][1,4]diazepine]
IC50 [1]: 50 nM | IC50 [2]: 3750 nM | % activity without OSCP at IC50 [3]: 78% | IC50 [4]: 77 nM | IC50 [5]: 50 nM

antimycin A
increase of the rate of ROS production [8]: nearly two-fold

Cc1[nH]cnc1CN1c2ccccc2CN(S(=O)(=O)c2ccc(C(C)(C)C)cc2)CC1CCc1ccccc1 (centres unmarked) [4-(4-tert-butylphenylsulfonyl)-1-(5-methyl-1H-imidazol-4-ylmethyl)-2-phenethyl-2,3,4,5-tetrahydro-1H-benzo[e][1,4]diazepine]
IC50 [1]: 55 nM | IC50 [2]: 15000 nM | % activity without OSCP at IC50 [3]: 80% | IC50 [4]: 77 nM | IC50 [5]: 5 nM

CC(C)(C)c1ccc(S(=O)(=O)N2Cc3ccccc3N(Cc3c[nH]cn3)C(CCc3ccccc3)C2)cc1 (centres unmarked) [4-(4-tertbutylphenylsulfonyl)-1-(1H-imidazol-4-ylmethyl)-2-phenethyl-2,3,4,5-tetrahydro-1H-benzo[e][1,4]diazepine]
IC50 [1]: 25 nM | IC50 [2]: 5000 nM | % activity without OSCP at IC50 [3]: 77% | IC50 [4]: 8 nM | IC50 [5]: 20 nM

O=S(=O)(c1ccc(F)cc1)N1Cc2ccccc2N(Cc2c[nH]cn2)C(CCc2ccccc2)C1 (centres unmarked) [4-(4-fluorophenylsulfonyl)1-(1H-imidazol-4-ylmethyl)-2-phenethyl-2,3,4,5-tetrahydro-1H-benzo[e][1,4]diazepine]
IC50 [1]: 150 nM | IC50 [2]: 7500 nM | % activity without OSCP at IC50 [3]: 79% | IC50 [4]: 221 nM | IC50 [5]: 100 nM
